What was measured:
[1] = Volume of distribution at steady state in cancer patient at 10 mg for 60 mins treated 1/1 cycle/day; format: ADME, organism-based; parameters: dosed compound name LY2090314; details: human, in vivo, read-out: Vdss
[2] = Cmax in cancer patient at 40 mg for 60 mins treated 1/1 cycle/day; format: ADME, organism-based; parameters: dose 40 mg, dosed compound name LY2090314; details: human, in vivo
[3] = Clearance in cancer patient at 20 mg for 60 mins treated 2/1 cycle/day; format: ADME, organism-based; parameters: dosed compound name LY2090314; details: human, in vivo
[4] = Tmax in cancer patient at 80 mg for 60 mins treated 1/1 cycle/day; format: ADME, organism-based; parameters: dosed compound name LY2090314; details: human, in vivo
Plasma [5] = experiment: Plasma concentration in beagle dog at Tmax; format: ADME, cell-free, Canis lupus familiaris; parameters: dosed compound name [14C]LY2090314
[6] = Clearance in cancer patient at 10 mg for 60 mins treated 2/1 cycle/day; format: ADME, organism-based; parameters: dosed compound name LY2090314; details: human, in vivo
Canis familiaris [7] = experiment: Total drug recovery in beagle dog at 5 mg/kg, iv administered for 30 mins during 0 to 24 hrs time interval by radio analysis; format: ADME, organism-based, Canis lupus familiaris; parameters: dose 5 mg/kg, dosed compound name [14C]LY2090314, route intravenous; details: in vivo
[8] = Drug recovery in Sprague-Dawley rat feces at 5 mg/kg, iv administered for 30 mins during 0 to 168 hrs time interval by radio analysis; format: ADME, organism-based; parameters: dose 5 mg/kg, dosed compound name [14C]LY2090314, route intravenous; details: in vivo
[9] = Drug recovery in bile duct-cannulated Sprague-Dawley rat urine at 5 mg/kg, iv administered for 30 mins during 0 to 12 hrs time interval by radio analysis; format: ADME, organism-based; parameters: dose 5 mg/kg, dosed compound name [14C]LY2090314, route intravenous; details: in vivo
Canis familiaris [10] = experiment: Tmax in beagle dog assessed as total radioactivity at 5 mg/kg, iv administered for 30 mins; format: ADME, organism-based, Canis lupus familiaris; parameters: dose 5 mg/kg, dosed compound name [14C]LY2090314, route intravenous; details: in vivo, 0.5 h
Rattus norvegicus [11] = experiment: Drug recovery in Sprague-Dawley rat cage at 5 mg/kg, iv administered for 30 mins during 0 to 24 hrs time interval by radio analysis; format: ADME, organism-based; parameters: dose 5 mg/kg, dosed compound name [14C]LY2090314, route intravenous; details: in vivo
Rattus norvegicus [12] = experiment: Cmax in Sprague-Dawley rat assessed as total radioactivity at 5 mg/kg, iv administered for 30 mins; format: ADME, organism-based; parameters: dose 5 mg/kg, dosed compound name [14C]LY2090314, route intravenous; details: in vivo, 0.5 h
[13] = AUC (0 to infinity) in cancer patient at 60 mg for 60 mins treated 1/8 cycle/day; format: ADME, organism-based; parameters: dose 60 mg, time infinity, dosed compound name LY2090314; details: human, plasma
[14] = Cmax in cancer patient at 10 mg for 60 mins treated 1/1 cycle/day; format: ADME, organism-based; parameters: dose 10 mg, dosed compound name LY2090314; details: human, in vivo
[15] = Drug recovery in bile duct-cannulated Sprague-Dawley rat cage/carcass at 5 mg/kg, iv administered for 30 mins during 0 to 168 hrs time interval by radio analysis; format: ADME, organism-based; parameters: dose 5 mg/kg, dosed compound name [14C]LY2090314, route intravenous; details: in vivo
[16] = Cmax in cancer patient at 120 mg for 60 mins treated 1/1 cycle/day; format: ADME, organism-based; parameters: dose 120 mg, dosed compound name LY2090314; details: human, in vivo
[17] = Tmax in cancer patient at 20 mg for 60 mins treated 1/1 cycle/day; format: ADME, organism-based; parameters: dosed compound name LY2090314; details: human, in vivo
[18] = Clearance in cancer patient at 40 mg for 60 mins treated 1/8 cycle/day; format: ADME, organism-based; parameters: dosed compound name LY2090314; details: human, in vivo
[19] = Clearance in cancer patient at 60 mg for 60 mins treated 1/8 cycle/day; format: ADME, organism-based; parameters: dosed compound name LY2090314; details: human, in vivo
Canis familiaris [20] = experiment: Drug recovery in beagle dog cage at 5 mg/kg, iv administered for 30 mins during 0 to 24 hrs time interval by radio analysis; format: ADME, organism-based, Canis lupus familiaris; parameters: dose 5 mg/kg, dosed compound name [14C]LY2090314, route intravenous; details: in vivo
[21] = Drug recovery in bile duct-cannulated Sprague-Dawley rat bile at 5 mg/kg, iv administered for 30 mins during 0 to 12 hrs time interval by radio analysis; format: ADME, organism-based; parameters: dose 5 mg/kg, dosed compound name [14C]LY2090314, route intravenous; details: in vivo
[22] = Drug recovery in Sprague-Dawley rat urine at 5 mg/kg, iv administered for 30 mins during 0 to 24 hrs time interval by radio analysis; format: ADME, organism-based; parameters: dose 5 mg/kg, dosed compound name [14C]LY2090314, route intravenous; details: in vivo
[23] = Plasma protein binding in beagle dog; format: ADME, cell-free, Canis lupus familiaris; parameters: dosed compound name [14C]LY2090314; details: read-out: PPB
[24] = Drug uptake in beagle […] blood at 5 mg/kg, iv administered for 30 mins; format: ADME, organism-based, Canis lupus familiaris; parameters: dose 5 mg/kg, dosed compound name [14C]LY2090314, route intravenous; details: in vivo, 0.5 h
[25] = Tmax in Sprague-Dawley rat at 5 mg/kg, iv administered for 30 mins; format: ADME, organism-based; parameters: dose 5 mg/kg, dosed compound name [14C]LY2090314, route intravenous; details: in vivo
[26] = Tmax in cancer patient at 60 mg for 60 mins treated 1/8 cycle/day; format: ADME, organism-based; parameters: dosed compound name LY2090314; details: human, in vivo
[27] = Elimination half life in beagle dog at 5 mg/kg, iv administered for 30 mins; format: ADME, organism-based, Canis lupus familiaris; parameters: dose 5 mg/kg, dosed compound name [14C]LY2090314, route intravenous; details: in vivo, read-out: beta t1/2 (converted)
[28] = Cmax in cancer patient at 40 mg for 60 mins treated 1/8 cycle/day; format: ADME, organism-based; parameters: dose 40 mg, dosed compound name LY2090314; details: human, in vivo
Plasma [29] = experiment: Plasma concentration in beagle dog at 5 mg/kg, iv administered for 30 mins; format: ADME, organism-based, Canis lupus familiaris; parameters: dose 5 mg/kg, dosed compound name [14C]LY2090314, route intravenous; details: in vivo, 0.5 h
[30] = Drug recovery in bile duct-cannulated Sprague-Dawley rat urine at 5 mg/kg, iv administered for 30 mins during 0 to 168 hrs time interval by radio analysis; format: ADME, organism-based; parameters: dose 5 mg/kg, dosed compound name [14C]LY2090314, route intravenous; details: in vivo
[31] = Drug recovery in beagle dog urine at 5 mg/kg, iv administered for 30 mins during 0 to 12 hrs by radio analysis; format: ADME, organism-based, Canis lupus familiaris; parameters: dose 5 mg/kg, dosed compound name [14C]LY2090314, route intravenous; details: in vivo
[32] = Volume of distribution at steady state in cancer patient at 60 mg for 60 mins treated 1/8 cycle/day; format: ADME, organism-based; parameters: dosed compound name LY2090314; details: human, in vivo, read-out: Vdss
[33] = Volume of distribution at steady state in cancer patient at 120 mg for 60 mins treated 1/1 cycle/day; format: ADME, organism-based; parameters: dosed compound name LY2090314; details: human, in vivo, read-out: Vdss
Rattus norvegicus [34] = experiment: Total drug recovery in Sprague-Dawley rat at 5 mg/kg, iv administered for 30 mins during 0 to 24 hrs time interval by radio analysis; format: ADME, organism-based; parameters: dose 5 mg/kg, dosed compound name [14C]LY2090314, route intravenous; details: in vivo
[35] = Cmax in cancer patient at 80 mg for 60 mins treated 1/8 cycle/day; format: ADME, organism-based; parameters: dose 80 mg, dosed compound name LY2090314; details: human, in vivo
[36] = Half life in cancer patient at 60 mg for 60 mins treated 1/1 cycle/day; format: ADME, organism-based; parameters: dosed compound name LY2090314; details: human, in vivo
[37] = Tmax in cancer patient at 120 mg for 60 mins treated 1/1 cycle/day; format: ADME, organism-based; parameters: dosed compound name LY2090314; details: human, in vivo
[38] = Drug recovery in Sprague-Dawley rat feces at 5 mg/kg, iv administered for 30 mins during 0 to 24 hrs time interval by radio analysis; format: ADME, organism-based; parameters: dose 5 mg/kg, dosed compound name [14C]LY2090314, route intravenous; details: in vivo
Rattus norvegicus [39] = experiment: Drug recovery in Sprague-Dawley rat cage at 5 mg/kg, iv administered for 30 mins during 0 to 168 hrs time interval by radio analysis; format: ADME, organism-based; parameters: dose 5 mg/kg, dosed compound name [14C]LY2090314, route intravenous; details: in vivo
[40] = Drug recovery in bile duct-intact Sprague-Dawley rat assessed as radioactivity in bile during 0 to 24 hrs at 5 mg/kg, iv administered for 30 mins relative to dosed radioactivity; format: ADME, organism-based; parameters: dose 5 mg/kg, dosed compound name [14C]LY2090314, route intravenous; details: in vivo
[41] = Clearance in cancer patient at 120 mg for 60 mins treated 1/8 cycle/day; format: ADME, organism-based; parameters: dosed compound name LY2090314; details: human, in vivo
Canis familiaris [42] = experiment: Volume of distribution at steady state in beagle dog assessed as total radioactivity at 5 mg/kg, iv administered for 30 mins; format: ADME, organism-based, Canis lupus familiaris; parameters: dose 5 mg/kg, dosed compound name [14C]LY2090314, route intravenous; details: in vivo, 0.5 h
[43] = Clearance in cancer patient at 60 mg for 60 mins treated 1/1 cycle/day; format: ADME, organism-based; parameters: dosed compound name LY2090314; details: human, in vivo
[44] = Plasma protein binding in cancer patient; format: ADME, cell-free; parameters: dosed compound name LY2090314; details: human, read-out: PPB (converted)
[45] = Half life in cancer patient at 40 mg for 60 mins treated 1/8 cycle/day; format: ADME, organism-based; parameters: dosed compound name LY2090314; details: human, in vivo
[46] = Volume of distribution at steady state in cancer patient at 40 mg for 60 mins treated 1/8 cycle/day; format: ADME, organism-based; parameters: dosed compound name LY2090314; details: human, in vivo, read-out: Vdss

`O=C1NC(=O)C(c2cnc3ccccn23)=C1c1cn2c3c(cc(F)cc13)CN(C(=O)N1CCCCC1)CC2` [LY-2090314] showed a Vd [1] of 89.7 L, a Cmax [2] of 603 ng/mL and a clearance [3] of 825 mL/min. The Tmax [4] was 60 min, the Compound recovery (Plasma [5]) was 82.8% and the clearance [6] was 870 mL/min. The Radiolabel recovery (Canis familiaris [7]) was 61.5%, the Radiolabel recovery [8] was 96.7% and the Radiolabel recovery [9] was 1.82%. For the same compound, the Tmax (Canis familiaris [10]) was 30 min, the Radiolabel recovery (Rattus norvegicus [11]) was 0.07% and the Cmax (Rattus norvegicus [12]) was 2080 ng/mL. It also gave an AUC(0-inf) [13] of 1570 ng·h/mL, a Cmax [14] of 122 ng/mL and a Radiolabel recovery [15] of 0.31%. The Cmax [16] was 1700 ng/mL, the Tmax [17] was 58.8 min and the clearance [18] was 710 mL/min. For the same compound, the clearance [19] was 633 mL/min, the Radiolabel recovery (Canis familiaris [20]) was 2.03% and the Radiolabel recovery [21] was 85.2%. The Radiolabel recovery [22] was 0.73%, the fraction unbound [23] was 0.01 and the Compound recovery [24] was 25.5%. The Tmax [25] was 30 min, the Tmax [26] was 55.2 min and the half-life [27] was 39.7 min. For the same compound, the Cmax [28] was 657 ng/mL, the Compound recovery (Plasma [29]) was 21.4% and the Radiolabel recovery [30] was 1.94%. It also gave a Radiolabel recovery [31] of 0.35%, a Vd [32] of 67.5 L and a Vd [33] of 82.1 L. The Radiolabel recovery (Rattus norvegicus [34]) was 92.6%, the Cmax [35] was 1150 ng/mL and the half-life [36] was 189 min. For the same compound, the Tmax [37] was 58.8 min, the Radiolabel recovery [38] was 91.8% and the Radiolabel recovery (Rattus norvegicus [39]) was 0.14%. For the same compound, the Radiolabel recovery [40] was 1.8%, the clearance [41] was 638 mL/min and the Vdss (Canis familiaris [42]) was 9.84 L/kg. It also gave a clearance [43] of 617 mL/min, a fraction unbound [44] of 0.03 and a half-life [45] of 161 min. The Vd [46] was 64.1 L.

Reference: ChEMBL document CHEMBL3526091, “Pharmacokinetics, metabolism, and excretion of the glycogen synthase kinase-3 inhibitor LY2090314 in rats, dogs, and humans: a case study in rapid clearance by extensive metabolism with low circulating metabolite exposure” (Drug Metab Dispos, 2013)
